Earlier results in patent US9512158B2, “Enhanced immunogenicity of tumor associated antigens by addition of alphagal epitopes” (NewLink Genetics Corp., priority 2006, dated 2016).

Experiments:
αGT knockout mice = details: cited from earlier work
MHC-I H2-K^b = biological target: T1, MHC-I H2-K^b (Mus musculus, UniProt P01901); details: compared with peptide #1 TWHRYHLL; cited from earlier work
T1 sequence (P01901 22-369): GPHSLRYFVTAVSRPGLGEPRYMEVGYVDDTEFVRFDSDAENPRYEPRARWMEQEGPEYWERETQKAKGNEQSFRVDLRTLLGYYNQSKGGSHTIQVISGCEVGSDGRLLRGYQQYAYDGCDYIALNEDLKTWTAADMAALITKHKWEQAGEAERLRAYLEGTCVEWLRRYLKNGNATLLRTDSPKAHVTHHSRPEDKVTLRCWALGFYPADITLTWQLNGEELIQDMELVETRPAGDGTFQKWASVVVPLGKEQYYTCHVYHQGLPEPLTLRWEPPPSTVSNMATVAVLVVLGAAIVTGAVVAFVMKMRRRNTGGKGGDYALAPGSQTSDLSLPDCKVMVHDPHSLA
T1 sequence (P01887 21-119 partner): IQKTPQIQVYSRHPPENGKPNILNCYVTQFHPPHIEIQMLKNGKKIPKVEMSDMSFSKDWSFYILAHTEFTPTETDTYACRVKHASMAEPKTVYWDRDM

B16 melanoma = details: cited from earlier work

Substance | T cell response to BSA (αGT knockout mice; mouse, in vivo) | production of anti-BSA IgG antibodies (αGT knockout mice; without adjuvant) | binding affinity to MHC-I H2-K^b (MHC-I H2-K^b) | protective immunity against B16 melanoma (B16 melanoma; C57Bl/6 mice (H-2K^b), in the presence of adjuvant) | immunogenicity (B16 melanoma; in the absence of adjuvant)
BSA conjugated with αGal: BSA conjugated with αGal | increase | significant production | – | – | –
TAYRYHLL | – | – | better binding affinity | induces protective immunity | not immunogenic
